Results from patent US8598118B2, “Hepatocyte growth factor mimics as therapeutic agents” (Washington State University, priority 2011, dated 2013).
Several values for one entry are separate records, joined by “and”; a condition that tells them apart may be missing. Equal values may be shown once.

Columns and labels:
[1] = system: hippocampal neurons; test: Whole-cell recordings of AMPA-mediated mEPSCs; format: cell-based, rat; settings: HGF 10 ng/ml, 5 days (Example 2)
[2] = system: hippocampal neurons; test: Immunocytochemistry: percent correlation of spines to synaptic markers (VGLUT1, Synapsin, PSD-95); format: cell-based, rat; settings: HGF 10 ng/ml, 5 days
Protocol: Transfected neurons were treated, fixed and stained. Briefly, cells were permeablized with 0.1% Triton X-100 detergent (Bio-Rad; Hercules, Calif.) for 10 minutes. An 8% bovine serum albumin (Intergen Company; Burlington, Mass.) in PBS was used to prevent non-specific binding for one hour at R.T.; Primary antibody incubations were at a 1:2500 dilution (see below) in 1% BSA in PBS at 4° C. overnight. Secondary antibody, 1:3000 Alexafluor 488 goat-anti-mouse (Invitrogen: Carlsbad, Calif.) was applied for two hours at room temperature. Coverslips were mounted with ProLong Gold anti-fade reagent (Invitrogen; Carlsbad, Calif.) and all washes were done with PBS. Imaging and analysis were performed as described above. […] In each instance the total number of spines was counted for the treatment groups, control, Nle1-AngIV and Dihexa, to ensure an active phenotype. The total number of actin enriched spines adjacent to VGLUT1 or Synapsin were counted and converted to a percentage as the percent correlation of treatment-induced spines to presynaptic markers is a strong indicator of ability to transmit excitatory signals.
Transfected neurons were treated, fixed and stained as previously described in Chapter two. […] In each instance the total number of spines was counted for the treatment groups, control, Nle1-AngIV and Dihexa, to ensure an active phenotype. […]

[3] = target: T1, c-Met receptor (Rattus norvegicus, UniProt P97523); test: Effect of c-Met knock-down (shMet) on spinogenesis in hippocampal neurons; format: cell-based; settings: HGF 10 ng/ml, 48 hours
T1 construct: Dissociated hippocampal neurons were transfected with mRFP-β-actin and shMet RNA; endogenous in cells; host or cells: dissociated hippocampal neurons from P1-2 Sprague Dawley rats
T1 sequence (P17945 33-495 partner limits assumed): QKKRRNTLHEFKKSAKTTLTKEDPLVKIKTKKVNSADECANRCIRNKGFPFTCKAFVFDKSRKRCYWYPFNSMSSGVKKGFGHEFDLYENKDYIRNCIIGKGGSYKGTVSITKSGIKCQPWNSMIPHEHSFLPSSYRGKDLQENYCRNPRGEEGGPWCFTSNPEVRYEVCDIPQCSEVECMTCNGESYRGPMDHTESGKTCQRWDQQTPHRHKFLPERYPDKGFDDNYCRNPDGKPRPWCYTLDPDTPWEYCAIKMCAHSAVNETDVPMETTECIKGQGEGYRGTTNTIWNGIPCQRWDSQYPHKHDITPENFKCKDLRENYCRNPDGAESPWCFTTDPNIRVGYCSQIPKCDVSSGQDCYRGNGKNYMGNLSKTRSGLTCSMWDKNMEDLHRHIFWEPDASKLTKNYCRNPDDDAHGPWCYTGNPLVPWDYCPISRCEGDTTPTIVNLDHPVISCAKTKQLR
T1 sequence (P17945 496-728 partner limits assumed): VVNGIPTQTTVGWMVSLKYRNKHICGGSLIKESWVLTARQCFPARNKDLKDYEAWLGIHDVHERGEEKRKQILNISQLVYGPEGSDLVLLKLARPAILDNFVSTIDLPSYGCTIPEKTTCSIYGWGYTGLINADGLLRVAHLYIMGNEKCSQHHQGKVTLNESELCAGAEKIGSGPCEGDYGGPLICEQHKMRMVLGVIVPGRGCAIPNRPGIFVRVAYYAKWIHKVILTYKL
T1 sequence (P97523 25-1382): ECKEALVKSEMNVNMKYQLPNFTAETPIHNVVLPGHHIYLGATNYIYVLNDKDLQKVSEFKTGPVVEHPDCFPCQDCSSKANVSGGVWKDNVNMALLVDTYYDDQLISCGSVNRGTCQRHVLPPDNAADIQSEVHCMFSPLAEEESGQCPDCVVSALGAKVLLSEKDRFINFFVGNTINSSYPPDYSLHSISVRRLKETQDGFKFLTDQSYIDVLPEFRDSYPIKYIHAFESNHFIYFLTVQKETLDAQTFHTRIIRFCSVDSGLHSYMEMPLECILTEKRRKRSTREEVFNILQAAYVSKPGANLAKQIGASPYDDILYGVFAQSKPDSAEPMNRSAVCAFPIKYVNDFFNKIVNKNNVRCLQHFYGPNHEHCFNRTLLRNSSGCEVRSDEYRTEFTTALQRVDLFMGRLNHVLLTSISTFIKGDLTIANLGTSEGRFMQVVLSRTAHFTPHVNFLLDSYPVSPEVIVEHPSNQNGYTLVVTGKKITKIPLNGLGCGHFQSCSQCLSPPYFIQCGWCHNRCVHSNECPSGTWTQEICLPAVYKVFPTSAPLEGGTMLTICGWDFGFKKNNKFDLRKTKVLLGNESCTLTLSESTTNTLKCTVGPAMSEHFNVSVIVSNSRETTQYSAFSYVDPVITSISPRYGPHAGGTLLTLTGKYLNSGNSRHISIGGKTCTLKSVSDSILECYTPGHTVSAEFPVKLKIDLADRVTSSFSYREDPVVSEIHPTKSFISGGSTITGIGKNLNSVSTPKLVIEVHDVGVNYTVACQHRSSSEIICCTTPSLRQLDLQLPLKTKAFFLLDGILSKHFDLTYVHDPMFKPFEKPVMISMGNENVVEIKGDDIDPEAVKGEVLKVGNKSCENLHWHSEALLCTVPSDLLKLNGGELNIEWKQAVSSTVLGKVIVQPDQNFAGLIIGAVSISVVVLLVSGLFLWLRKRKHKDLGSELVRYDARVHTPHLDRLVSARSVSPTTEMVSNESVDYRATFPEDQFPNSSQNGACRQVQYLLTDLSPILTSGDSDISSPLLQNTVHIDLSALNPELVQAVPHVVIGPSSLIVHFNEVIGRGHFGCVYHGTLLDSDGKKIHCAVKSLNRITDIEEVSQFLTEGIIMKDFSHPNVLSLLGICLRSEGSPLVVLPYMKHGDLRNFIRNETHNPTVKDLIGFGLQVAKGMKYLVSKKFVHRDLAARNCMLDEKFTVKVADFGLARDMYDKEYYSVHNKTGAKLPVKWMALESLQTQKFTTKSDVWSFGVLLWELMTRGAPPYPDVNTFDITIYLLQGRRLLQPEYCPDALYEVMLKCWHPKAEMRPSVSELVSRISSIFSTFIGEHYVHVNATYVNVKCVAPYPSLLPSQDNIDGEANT
Description: Neurons were transfected with mRFP-β-actin on day in vitro 6 (DIV6) using LipofectAMINE™ 2000 (Invitrogen) according to the manufacturer's protocol. This protocol yielded the desired 3-5% transfection efficiency thus enabling the visualization of individual neurons. Higher efficiencies obscured the dendritic arbor of individual neurons. Expression of fluorescently tagged actin allowed clear visualization of dendritic spines, as dendritic spines are enriched in actin. On DIV7 the cells were treated with vehicle (H20) or peptides (as described in the text) added to media. On DIV 12 the neurons were fixed (4% paraformaldehyde, 3% sucrose, 60 mM PIPES, 25 mM HEPES, 5 mM EGTA, 1 mM MgCl2, pH 7.4) for 20 min at room temperature and mounted. Slides were dried for at least 20 hours at 4° C. and fluorescent images were obtained with Slidebook 4.2 Digital Microscopy Software driving an Olympus IX81 inverted confocal microscope with a 60× oil immersion lens, NA 1.4 and resolution 0.280 μm Dendritic spine density was measured on primary and secondary dendrites at a distance of at least 150 μm from the soma. Five 50 μm long segments of dendrite from at least 10 neurons per data point were analyzed for each data point reported. Each experiment was repeated at least three times using independent culture preparations. Dendrite length was determined using the National Institutes of Health's Image J 1.41o program (NIH, Bethesda, Md.) and the neurite tracing program Neuron J (Meijering, Jacob et al. 2004) Spines were manually counted.
A target sequence for c-Met was designed using RNAi central design program (see the website located at cancan.cshl.edu/). […]. The shRNA was transfected into cells using the lipofectamine method described above. Verification of receptor knockdown was done by creating a c-Met-6-Myc tagged gene product using the Gateway cloning system (Invitrogen). […]

- mean spine numbers per 50 μm dendrite length ([3]; neurons transfected with mRFP-β-actin alone): 20.6
- mean spine numbers per 50 μm dendrite length ([3]; neurons transfected with mRFP-β-actin and shMet): 12.4
Substance: HGF: carrier free adult recombinant Hepatocyte Growth Factor (R and D Systems)
- mean frequency of mEPSCs [1]: 7.09±0.53 and 9.66±0.20
- percent correlation of spines to Synapsin [2]: 98%
